From US5284834A, “Adenosine functionalized congeners as cardiovascular treating agents for animals and methods for using same” (priority 1992, dated 1994)
Entries after “also recorded” stand apart in the source; their conditions may differ. Read-outs that look alike come from different tables or passages of the source.

How the values were obtained:
[1] = target: T1, Coronary A2-Adenosine Receptor (Canis lupus familiaris, UniProt P11617); assay: Coronary vasoactivity in the anesthetized, open-chest dog (intracoronary infusion; MPR from EC50); format: in vivo; settings: for A2 Receptor MPR Relative to MeAdo: molar potency ratio relative to N6-methyladenosine (set equal to 1.0); for A2 Receptor MPR Relative to MeAdo / A2 Receptor MPR Relative to Ado: coronary; for A2 Receptor MPR Relative to Ado: molar potency ratio: EC50 of adenosine divided by that of the analogue; for A2/A1 potency ratio (MPR(A2)/MPR(A1)): ratio of MPR (MeAdo) at dog coronary A2 receptor to MPR at rat brain A1 receptor; for coronary vasoactivity (in words): intracoronary infusion; for A2 versus A1 receptor selectivity (in words): dog coronary A2 versus rat brain A1
T1 construct: The assay of coronary vasoactivity in the anesthetized, open-chest dog; from tissue; host or cells: coronary vessels in situ, anesthetized open-chest dog
Excerpt: (§1) In the present invention there is compared the A1 - and A2 -potencies of a series of long-chain derivatives of adenosine suitable for attachment to "carriers," such as peptides or proteins, and for immobilization to polymeric matrices for affinity chromatography of adenosine receptors. The method employed is a comparison of increasing coronary blood flow via activation of an A2 -adenosine receptor versus an A1 -binding assay in rat brain.
(§2) The potencies at A2 -receptors (Table 1) are expressed as a molar potency ratio of the EC50 value of adenosine divided by that of the adenosine analogue. A common reference compound on which to base molar potency ratios was needed to facilitate comparison of activities at A1 and A2 receptors. Adenosine itself cannot be used as a reference in the A1 binding assay since treatment of the membranes with adenosine deaminase is essential. […] Thus, MeAdo was used as a suitable reference compound.
The assay of coronary vasoactivity in the anesthetized, open-chest dog, is described by Kusachi et al, J. Med. Chem., in press, and Olsson, et al, J. Circ. […] The assay estimates an EC-50, the concentration of analogue which produces a half maximum change in coronary conductance (reciprocal resistance). To reduce between-animal variability activity is expressed as a molar potency ratio (MPR) the value of the EC-50 of adenosine divided by that of the analogue. Owing to the low water solubility of some of the analogues, solutions for intracoronary infusion were prepared by diluting stock solutions in dimethyl sulfoxide. In such instances, solutions of adenosine used to establish a standard of potency also contained dimethyl sulfoxide. […]

[2] = target: T2, Brain A1-adenosine receptor (Rattus norvegicus, UniProt P25099); assay: A1-binding assay: antagonism of binding of 1nM [3H]N6-cyclohexyladenosine to rat cerebral cortical membranes; settings: for A1 Receptor MPR Relative to MeAdo: molar potency ratio derived from Ki values, rat cerebral cortical membranes
T2 construct: -cyclohexyladenosine to rat cerebral cortical membranes; from tissue; host or cells: rat cerebral cortical membranes
T2 sequence (P25099 1-326): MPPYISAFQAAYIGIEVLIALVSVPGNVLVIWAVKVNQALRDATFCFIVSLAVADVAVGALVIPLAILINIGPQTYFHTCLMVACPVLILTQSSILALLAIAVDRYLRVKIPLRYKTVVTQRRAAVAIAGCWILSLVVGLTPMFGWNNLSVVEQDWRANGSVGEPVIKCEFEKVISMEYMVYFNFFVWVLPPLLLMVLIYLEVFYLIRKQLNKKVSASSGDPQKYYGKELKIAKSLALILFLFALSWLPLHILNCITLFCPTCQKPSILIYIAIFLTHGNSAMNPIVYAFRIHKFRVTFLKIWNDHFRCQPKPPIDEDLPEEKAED
Excerpt: as §1
^b Molar potency ratio relative to adenosine, derived from Ki
values for antagonism of binding of 1nM [^3 H]N^6
-cyclohexyladenosine to rat cerebral cortical membranes.
as §2

[3] = Octanol water partition coefficients; format: physicochemical; settings: for logP: octanol water, read-out: octanol water partition coefficient
Excerpt: B. Certain of the conjugates have ionizable groups on the attached chain. These groups alter the biodistribution of the compounds and make them less likely to enter the brain and produce central depressant effects. The effect of charged groups is reflected in octanol water partition coefficients as follows: […]

[4] = Entry into the brain and central side effects; settings: in vivo
[5] = system: A1-receptors; settings: background; cited from earlier work
[6] = target: T3, A2-adenosine receptor (adenylate cyclase, human platelet membranes) (Homo sapiens, UniProt P29274); assay: Stimulation of adenylate cyclase in human platelet membranes; format: biochemical
T3 construct: stimulation of adenylate cyclase in human platelet membranes; from tissue; host or cells: human platelet membranes
T3 sequence (P29274 whole entry): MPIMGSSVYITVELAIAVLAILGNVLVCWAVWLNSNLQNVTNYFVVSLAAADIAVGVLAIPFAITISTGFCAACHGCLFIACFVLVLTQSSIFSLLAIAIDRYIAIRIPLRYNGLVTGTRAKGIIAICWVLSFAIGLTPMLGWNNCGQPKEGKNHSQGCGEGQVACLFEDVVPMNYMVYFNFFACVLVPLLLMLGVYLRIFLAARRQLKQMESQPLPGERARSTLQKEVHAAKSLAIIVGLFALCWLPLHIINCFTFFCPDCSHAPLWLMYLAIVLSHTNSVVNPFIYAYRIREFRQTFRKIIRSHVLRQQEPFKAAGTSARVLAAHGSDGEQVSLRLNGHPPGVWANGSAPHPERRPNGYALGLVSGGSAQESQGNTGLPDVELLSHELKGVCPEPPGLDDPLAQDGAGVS

T1 sequence (P11617 whole entry, the tested form may be a part): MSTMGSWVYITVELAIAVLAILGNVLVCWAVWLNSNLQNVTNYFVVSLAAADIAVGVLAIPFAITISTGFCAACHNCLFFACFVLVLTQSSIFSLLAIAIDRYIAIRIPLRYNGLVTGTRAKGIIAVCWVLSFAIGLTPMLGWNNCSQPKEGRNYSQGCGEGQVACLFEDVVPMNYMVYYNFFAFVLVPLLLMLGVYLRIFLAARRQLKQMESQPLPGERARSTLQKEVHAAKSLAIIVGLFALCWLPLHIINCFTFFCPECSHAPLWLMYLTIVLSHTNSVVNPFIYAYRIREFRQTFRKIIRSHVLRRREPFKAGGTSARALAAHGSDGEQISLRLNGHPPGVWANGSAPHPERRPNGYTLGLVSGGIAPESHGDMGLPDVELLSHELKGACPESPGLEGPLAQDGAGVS

Compound | A2 Receptor MPR Relative to MeAdo ([1]; dog) | A2 Receptor MPR Relative to Ado ([1]; dog) | A2/A1 potency ratio (MPR(A2)/MPR(A1)) [1] | A1 Receptor MPR Relative to MeAdo [2] | coronary vasoactivity (in words) ([1]; dog) | also measured
Nc1nc(Cl)nc2c1ncn2[C@@H]1O[C@H](CO)[C@@H](O)[C@H]1O [Compound 2, 2-Chloroadenosine, reference compound] | 540 | 27 | 54 | 10 |  | 
CNc1ncnc2c1ncn2[C@@H]1O[C@H](CO)[C@@H](O)[C@H]1O [Compound 3, N^6 -methyladenosine, reference compound] | 1.0 | 0.05 | 1.0 | 1.0 |  | fold weaker than adenosine at A2-receptors ([1]; dog, in vivo): ≥ 20 -fold; fold weaker than adenosine at A1-receptors [2]: at least 10 -fold
C[C@H](Cc1ccccc1)Nc1ncnc2c1ncn2[C@@H]1O[C@H](CO)[C@@H](O)[C@H]1O [Compound 4, N^6 -R-1-Phenyl-2-propyladenosine] |  |  |  |  |  | logP [3]: 2; brain entry [4]: enters the brain; central side effects [4]: produces central side effects; order of potency at A1-receptors [5]: R-PIA, CHA>NECA>S-PIA
OC[C@H]1O[C@@H](n2cnc3c(NC4CCCCC4)ncnc32)[C@H](O)[C@@H]1O [Compound 5, N^6 -cyclohexyladenosine] |  |  |  |  |  | order of potency at A1-receptors [5]: R-PIA, CHA>NECA>S-PIA
OC[C@H]1O[C@@H](n2cnc3c(Nc4ccccc4)ncnc32)[C@H](O)[C@@H]1O [Compound 6, N^6 -phenyladenosine, reference compound] | 28 | 1.4 | 1.6 | 18 | can exhibit some activity at this A2 -receptor | 
Cc1ccc(Nc2ncnc3c2ncn3[C@@H]2O[C@H](CO)[C@@H](O)[C@H]2O)cc1 [Compound 7, N^6 -p-tolyladenosine, reference compound] | 27 | 1.35 | 1.1 | 24 | can exhibit some activity at this A2 -receptor | 
O=C(O)Cc1ccc(Nc2ncnc3c2ncn3[C@@H]2O[C@H](CO)[C@@H](O)[C@H]2O)cc1 [Compound 8, N^6-(4-carboxymethylphenyl)adenosine] |  |  |  | 0.29 | only weakly active | % increase in flow over control ([1]; @ 21 μM plasma nucleoside concentration achieved during infusion): 27%; A1-binding activity (in words) [2]: only weakly active; IC50 ([6]; human platelet membranes, read-out: IC50 (printed lC50), stimulation of adenylate cyclase): 26 µM; polarity compared with compound 4 [3]: considerably more polar than 4; logP [3]: < -1.4
CNC(=O)Cc1ccc(Nc2ncnc3c2ncn3[C@@H]2O[C@H](CO)[C@@H](O)[C@H]2O)cc1 [Compound 9] |  |  |  |  | enhanced activity at both receptor subtypes | 
Cc1ccc(NC(=O)Cc2ccc(Nc3ncnc4c3ncn4[C@@H]3O[C@H](CO)[C@@H](O)[C@H]3O)cc2)cc1 [Compound 10] | 42 | 2.1 ± 1.3 | 1.2 | 35 | enhanced activity at both receptor subtypes | A1-binding activity (in words) [2]: enhanced activity at both receptor subtypes
COC(=O)[C@H](Cc1ccc(NC(=O)Cc2ccc(Nc3ncnc4c3ncn4[C@@H]3O[C@H](CO)[C@@H](O)[C@H]3O)cc2)cc1)NC(=O)C(F)(F)F [Compound 11] | 60 | 3.0 ± 0.7 | greater than 10 | 3.3 |  | A2/A1 potency ratio (MPR(A2)/MPR(A1)) ([1]; listed as drawing 6): 18
CNC(=O)CNC(=O)[C@H](Cc1ccc(NC(=O)Cc2ccc(Nc3ncnc4c3ncn4[C@@H]3O[C@H](CO)[C@@H](O)[C@H]3O)cc2)cc1)NC(=O)OC(C)(C)C [Compound 12] | 88 | 4.4 ± 0.4 | greater than 10 | 4.6 |  | A2/A1 potency ratio (MPR(A2)/MPR(A1)) ([1]; listed as drawing 7): 19
COC(=O)Cc1ccc(NC(=O)Cc2ccc(Nc3ncnc4c3ncn4[C@@H]3O[C@H](CO)[C@@H](O)[C@H]3O)cc2)cc1 [Compound 13] | 64 | 33.2 ± 1.6 | 2.7 | 24 |  | 
CNC(=O)Cc1ccc(NC(=O)Cc2ccc(Nc3ncnc4c3ncn4[C@@H]3O[C@H](CO)[C@@H](O)[C@H]3O)cc2)cc1 [Compound 14] | ≥ 100 | 7.2 ± 1443 |  | 9.0 | three most active analogues | A2 versus A1 receptor selectivity (in words) [1]: highly divergent at A1 and A2 receptors
NNC(=O)Cc1ccc(NC(=O)Cc2ccc(Nc3ncnc4c3ncn4[C@@H]3O[C@H](CO)[C@@H](O)[C@H]3O)cc2)cc1 [Compound 15] | 70 | 3.5 ± 0.8 | 5.3 | 13 |  | 
NCCNC(=O)Cc1ccc(NC(=O)Cc2ccc(Nc3ncnc4c3ncn4[C@@H]3O[C@H](CO)[C@@H](O)[C@H]3O)cc2)cc1 [Compound 16] |  | 7.8 ± 2.5 |  |  | three most active analogues; also recorded: high efficacy as a coronary vasodilator | IC50 [6]: 0.98 µM; polarity compared with compound 4 [3]: considerably more polar than 4; logP [3]: -0.81
O=C(CCc1ccc(O)cc1)NCCNC(=O)Cc1ccc(NC(=O)Cc2ccc(Nc3ncnc4c3ncn4[C@@H]3O[C@H](CO)[C@@H](O)[C@H]3O)cc2)cc1 [Compound 17] | 56 | 2.8 ± 0.1 | 4.2 | 13 |  | 
O=C(CCCC[C@@H]1SC[C@@H]2NC(=O)N[C@@H]21)NCCNC(=O)Cc1ccc(NC(=O)Cc2ccc(Nc3ncnc4c3ncn4[C@@H]3O[C@H](CO)[C@@H](O)[C@H]3O)cc2)cc1 [Compound 18] | 60 | 3.0 ± 0.2 |  | 5.5 |  | A2 versus A1 receptor selectivity (in words) [1]: highly divergent at A1 and A2 receptors
C[C@@H](Cc1ccccc1)Nc1ncnc2c1ncn2[C@@H]1O[C@H](CO)[C@@H](O)[C@H]1O [S-PIA] |  |  |  |  |  | order of potency at A1-receptors [5]: R-PIA, CHA>NECA>S-PIA
Avidin |  |  |  |  | lacked coronary vasoactivity | 
